# Source: patent US8536307B2, “Anticalins” (Pieris AG, priority 1997, dated 2013)
# Experiments:
# [1] = biological target: anticalin FluC, mutein of Pieris brassicae bilin-binding protein (Bbp): Asn34Ser, Ser35Lys, Val36Asn, Glu37Gly, Gly40Arg, Asn58Arg, His60Thr, Ile69Gln, Leu88Arg (Pieris brassicae, UniProt P09464, E52G/F142H/F83V/G55R/H75T/I84Q/K102S/K110R/K131R/K150M/L103R/N112G/N16D/N36Q/N49S/N73R/Q140L/S50K/V108K/V51N/Y105V/Y129R); details: fluorescence titration, excitation 280 nm, emission 340 nm, 1 μM anticalin, PBS with 1 mM EDTA, pH 7.4, 25° C.; [P]t additionally fitted as a free parameter
# Sequence of UniProt P09464 (P09464 other isoform, or with tags, fused parts or gaps with the stated changes): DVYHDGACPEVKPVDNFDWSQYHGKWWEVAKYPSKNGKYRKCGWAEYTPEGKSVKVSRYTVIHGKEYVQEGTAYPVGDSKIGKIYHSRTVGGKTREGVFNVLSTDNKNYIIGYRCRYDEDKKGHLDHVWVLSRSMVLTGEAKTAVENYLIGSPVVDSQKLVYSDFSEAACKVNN
# [2] = Fluorescence titration (decrease of intrinsic protein fluorescence) with ligand fluorescein; assay type: binding; details: measurement for comparison, fluorescein ligands
# Description: The ligand-binding characteristics of the anticalins, were then determined by fluorescence titration. Here, the decrease in the intrinsic tyrosine and tryptophan fluorescence of the protein upon complex formation with the ligand was measured. The measurements were made with a fluorescence photometer (MS III, Photon Technology International Inc.) at an excitation wavelength of 280 nm (slit width 5 nm) and emission wavelength of 340 nm (slit width 10 nm). Fluorescein, 4-amino-fluorescein as well as its conjugate with glutaric acid from Example 2 were used as ligands.
# PBS with addition of 1 mM EDTA, pH 7.4 (adjusted with NaOH) served as buffer system. […] For FluA and Bbp, the corrected calculated extinction coefficients in the presence of guanidinium chloride according to Gill and von Hippel (Anal. Biochem. 182 (1989), 319-326) of 59755 M^−1 cm^−1 (FluA) as well as 54150 M^−1 cm^−1 (Bbp) were used.
# For the measurement, 2 ml of the anticalin solution was applied in a quartz cuvette equipped with a stirring bar and thermostatted at 25° C. in the sample holder of the photometer. […] After every titration step the sample was incubated for 1 minute with stirring for equilibration, and the fluorescence signal was measured as an average value over 10 s. […]
# [formula] Here, F is the normalized fluorescence intensity and [P]t the concentration of the anticalin. […]
# [3] = biological target: biotinylated synthetic hepatitis C-peptide epitope, peptide fragment no. 59 from the surface protein NS4 of HCV (SEQ ID NO:13) (Hepatitis C virus genotype 1a, UniProt P27958); experiment: Sandwich-ELISA for detection of hepatitis C peptide epitope; details: ranking of signal strength
# Description: For the ELISA, the wells in a microtiter plate (ELISA-STRIP, 2×8 wells, KO, F-form, high binding capacity, Greiner) were each filled with 200 μl of a solution of 20 mg/ml HSA in 50 mM NaHCO3 pH 9.6 and were incubated for 1 hour at RT. After removal of the solution, the unoccupied binding sites were saturated with 200 μl 3% w/v BSA in PBS with 0.5% v/v Tween 20 for 1 hour. After washing three times with PBST, 50 μl of the undiluted periplasmic protein extract were filled into the respective first well of a row. 50 μl PBS were first placed into each of the subsequent wells of each row. 50 μl of the periplasmic protein extract were then pipetted into the respective second well, were mixed, and, starting from this, 1:2 dilutions in the subsequent wells were prepared in a stepwise manner. The periplasmic protein extract with the Bbp, which was made using pBBP22 as expression plasmid, served as a control.
# After 1 hour incubation at RT washing followed three times with PBST, followed by pipetting of 200 μl of the ligand solution (SEQ ID NO:13, 1 μM in PBST) into each well. […] To this end, 100 μl of a solution of 0.5 mg/ma p-nitrophenylphosphate (Amresco) in AP-buffer were placed in each well and product formation was measured by absorption at 405 nm in a SpectraMax 250 photometer (Molecular Devices) as dA/dt number.
Molecule,Dissociation constant (Kd) [1],sandwich-ELISA signal in comparison between anticalins [3],also measured
"Nc1ccc2c(c1)C(=O)OC21c2ccc(O)cc2Oc2cc(O)ccc21 [4-Aminofluorescein, 4-amino-fluorescein]",299 ± 41 nM,,
"O=C1OC2(c3ccc(O)cc3Oc3cc(O)ccc32)c2ccccc21 [Fluorescein, fluorescein]",411 ± 20 nM,,
"O=C(O)CCCC(=O)Nc1ccc2c(c1)C(=O)OC21c2ccc(O)cc2Oc2cc(O)ccc21 [4-Glutarylamidofluorescein, 4-glutarylamido-fluorescein]",78 ± 3 nM,,
"Bbp: Recombinant bilin-binding protein from Pieris brassicae (modified, encoded on pBBP21/pBBP22), produced as a control (protein, left off: small tags and cut ends) DVYHDGACPEVKPVDNFDWSQYHGKWWEVAKYPNSVEKYGKCGWAEYTPEGKSVKVSNYHVIHGKEYFIEGTAYPVGDSKIGKIYHSLTYGGVTKENVFNVLSTDNKNYIIGYYCKYDEDKKGHQDFVWVLSRSMVLTGEAKTAVENYLIGSPVVDSQKLVYSDFSEAACKVNNLAEAKVLANRELDKYGVSDYYKNLINNAKTVEGVKALIDEILAALP",,,binding effect in fluorescence titration (dissociation constant) [2]: so weak that a dissociation constant could not be determined
"HepC1: Anticalin (Bbp mutein) binding hepatitis C peptide epitope, produced as fusion with Strep-Tag II and albumin-binding domain (protein, left off: small tags and cut ends) DVYHDGACPEVKPVDNFDWSQYHGKWWEVAKYPKTKQKYEKCGWAEYTPEGKSVKVSLYHVIHGKEYFFEGTAYPVGDSKIGKIYHSVTAGGFTSEQVFSVLSTDNKNYIIGYACYYDEDKKGHVDFVWVLSRSMVLTGEAKTAVENYLIGSPVVDSQKLVYSDFSEAACKVNNLAEAKVLANRELDKYGVSDYYKNLINNAKTVEGVKALIDEILAALP",,strongest,
"HepC4: Anticalin (Bbp mutein) binding hepatitis C peptide epitope, produced as fusion with Strep-Tag II and albumin-binding domain (protein, left off: small tags and cut ends) DVYHDGACPEVKPVDNFDWSQYHGKWWEVAKYPQAPGKYGKCGWAEYTPEGKSVKVSPYNVIHGKEYFAEGTAYPVGDSKIGKIYHSWTGGGLTAEWVFNVLSTDNKNYIIGYPCRYDEDKKGHLDPVWVLSRSMVLTGEAKTAVENYLIGSPVVDSQKLVYSDFSEAACKVNNLAEAKVLANRELDKYGVSDYYKNLINNAKTVEGVKALIDEILAALP",,followed by HepC4,
